Measured values reported in ChEMBL document CHEMBL4813934, “Investigation of Selected Flavonoid Derivatives as Potent FLT3 Inhibitors for the Potential Treatment of Acute Myeloid Leukemia” (J Nat Prod, 2021).
Calls of active or inactive are those of the source. The calls are words filed in the database; no cut-off is given here.

Tests used:
MV4-11 [1] = experiment: Cytotoxicity against human MV4-11 cells assessed as reduction in cell viability measured after 72 hrs by MTT assay; format: functional, cell-based; details: MV4-11, 72 h
MOLM-13 [2] = experiment: Cytotoxicity against human MOLM-13 cells assessed as reduction in cell viability measured after 72 hrs by MTT assay; format: functional, cell-based; details: MOLM-13, 72 h
[3] = target: Receptor-type tyrosine-protein kinase FLT3 (Homo sapiens, UniProt P36888, ITD); experiment: Inhibition of recombinant N-terminal GST/His6-tagged human FLT3 ITD mutant (571 to 993 residues) expressed in Sf9 insect cells incubated for 1 hr by LanthaScreen assay
MV4-11 [4] = experiment: Cell cycle arrest in human MV4-11 cells assessed as increase in accumulation at sub-G1 phase at 30 uM measured after 72 hrs by propidium iodide/RNaseA staining based flow cytometry analysis; format: functional
[5] = target: Receptor-type tyrosine-protein kinase FLT3 (Homo sapiens) (UniProt P36888); experiment: Inhibition of recombinant His-tagged human FLT3 (564 to 958 residues) expressed in baculovirus expression system at 10 uM using tyr 02 as substrate incubated for 1 hr by Z'-LYTE assay relative to control
[6] = target: Receptor-type tyrosine-protein kinase FLT3 (Homo sapiens, UniProt P36888, D835Y); experiment: Inhibition of recombinant His-tagged human FLT3 D835Y mutant (564 to 958 residues) expressed in baculovirus expression system using tyr 02 as substrate incubated for 1 hr by Z'-LYTE assay
[7] = target: T1, Receptor-type tyrosine-protein kinase FLT3 (Homo sapiens, UniProt P36888); experiment: Inhibition of recombinant His-tagged human FLT3 (564 to 958 residues) expressed in baculovirus expression system using tyr 02 as substrate incubated for 1 hr by Z'-LYTE assay
T1 sequence (P36888 whole entry): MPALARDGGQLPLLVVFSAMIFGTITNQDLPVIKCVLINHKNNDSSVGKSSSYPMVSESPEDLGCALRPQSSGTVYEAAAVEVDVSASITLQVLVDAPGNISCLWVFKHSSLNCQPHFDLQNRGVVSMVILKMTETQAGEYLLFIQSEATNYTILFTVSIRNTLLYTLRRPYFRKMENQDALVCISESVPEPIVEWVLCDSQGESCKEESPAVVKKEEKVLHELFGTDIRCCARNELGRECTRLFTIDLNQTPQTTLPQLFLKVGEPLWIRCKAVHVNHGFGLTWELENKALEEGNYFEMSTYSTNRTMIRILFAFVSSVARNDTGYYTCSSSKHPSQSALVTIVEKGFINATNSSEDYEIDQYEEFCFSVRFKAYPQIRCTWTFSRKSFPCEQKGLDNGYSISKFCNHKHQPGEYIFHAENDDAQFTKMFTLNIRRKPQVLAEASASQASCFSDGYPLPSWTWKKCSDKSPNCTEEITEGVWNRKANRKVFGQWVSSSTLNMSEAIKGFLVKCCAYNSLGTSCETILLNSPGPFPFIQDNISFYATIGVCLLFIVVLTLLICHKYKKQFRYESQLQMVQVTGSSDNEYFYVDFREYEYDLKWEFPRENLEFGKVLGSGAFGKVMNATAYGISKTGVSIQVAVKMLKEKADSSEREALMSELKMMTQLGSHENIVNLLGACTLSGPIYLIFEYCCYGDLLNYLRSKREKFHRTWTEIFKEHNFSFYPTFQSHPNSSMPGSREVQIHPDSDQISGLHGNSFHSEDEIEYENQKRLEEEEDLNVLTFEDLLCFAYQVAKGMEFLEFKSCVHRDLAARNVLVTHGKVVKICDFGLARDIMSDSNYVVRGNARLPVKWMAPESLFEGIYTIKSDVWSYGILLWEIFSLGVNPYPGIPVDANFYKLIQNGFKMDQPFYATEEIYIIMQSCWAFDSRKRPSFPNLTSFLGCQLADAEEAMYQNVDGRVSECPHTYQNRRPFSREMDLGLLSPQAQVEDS

MOLM-13 [8] = experiment: Cell cycle arrest in human MOLM-13 cells assessed as accumulation at G0/G1 phase at 0.3 to 3 uM measured after 72 hrs by propidium iodide/RNaseA staining based flow cytometry analysis; format: functional; details: dose 0.3-3 µM
MOLM-13 [9] = experiment: Cell cycle arrest in human MOLM-13 cells assessed as accumulation at S phase at 3 uM measured after 72 hrs by propidium iodide/RNaseA staining based flow cytometry analysis (reference value: 11.14 %); format: functional
MV4-11 [10] = experiment: Cell cycle arrest in human MV4-11 cells assessed as accumulation at S phase at 30 uM measured after 72 hrs by propidium iodide/RNaseA staining based flow cytometry analysis (reference value: 17.51 %); format: functional
MOLM-13 [11] = experiment: Cell cycle arrest in human MOLM-13 cells assessed as accumulation at sub-G1 phase at 3 uM measured after 72 hrs by propidium iodide/RNaseA staining based flow cytometry analysis (reference value: 13.76 %); format: functional
MV4-11 [12] = experiment: Cell cycle arrest in human MV4-11 cells assessed as accumulation at S phase at 3 uM measured after 72 hrs by propidium iodide/RNaseA staining based flow cytometry analysis (reference value: 17.51 %); format: functional
MOLM-13 [13] = experiment: Cell cycle arrest in human MOLM-13 cells assessed as accumulation at S phase at 30 uM measured after 72 hrs by propidium iodide/RNaseA staining based flow cytometry analysis (reference value: 11.14 %); format: functional
MV4-11 [14] = experiment: Cell cycle arrest in human MV4-11 cells assessed as accumulation at G0/G1 phase at 10 uM measured after 72 hrs by propidium iodide/RNaseA staining based flow cytometry analysis (reference value: 50.06 %); format: functional
MOLM-13 [15] = experiment: Cell cycle arrest in human MOLM-13 cells assessed as accumulation at G0/G1 phase at 10 uM measured after 72 hrs by propidium iodide/RNaseA staining based flow cytometry analysis (reference value: 53.92 %); format: functional
MV4-11 [16] = experiment: Cell cycle arrest in human MV4-11 cells assessed as accumulation at G0/G1 phase at 3 uM measured after 72 hrs by propidium iodide/RNaseA staining based flow cytometry analysis (reference value: 50.06 %); format: functional
MOLM-13 [17] = experiment: Cell cycle arrest in human MOLM-13 cells assessed as accumulation at G0/G1 phase at 3 uM measured after 72 hrs by propidium iodide/RNaseA staining based flow cytometry analysis (reference value: 53.92 %); format: functional
MOLM-13 [18] = experiment: Cell cycle arrest in human MOLM-13 cells assessed as accumulation at sub-G1 phase at 30 uM measured after 72 hrs by propidium iodide/RNaseA staining based flow cytometry analysis (reference value: 13.76 %); format: functional
MV4-11 [19] = experiment: Cell cycle arrest in human MV4-11 cells assessed as accumulation at G2/M phase at 30 uM measured after 72 hrs by propidium iodide/RNaseA staining based flow cytometry analysis (reference value: 26.26 %); format: functional
MOLM-13 [20] = experiment: Cell cycle arrest in human MOLM-13 cells assessed as accumulation at G0/G1 phase at 30 uM measured after 72 hrs by propidium iodide/RNaseA staining based flow cytometry analysis (reference value: 53.92 %); format: functional
MV4-11 [21] = experiment: Cell cycle arrest in human MV4-11 cells assessed as accumulation at sub-G1 phase at 3 uM measured after 72 hrs by propidium iodide/RNaseA staining based flow cytometry analysis (reference value: 7.43 %); format: functional
MV4-11 [22] = experiment: Cell cycle arrest in human MV4-11 cells assessed as accumulation at G2/M phase at 3 uM measured after 72 hrs by propidium iodide/RNaseA staining based flow cytometry analysis (reference value: 26.26 %); format: functional
MV4-11 [23] = experiment: Cell cycle arrest in human MV4-11 cells assessed as accumulation at G0/G1 phase at 0.3 uM measured after 72 hrs by propidium iodide/RNaseA staining based flow cytometry analysis (reference value: 50.06 %); format: functional
MOLM-13 [24] = experiment: Cell cycle arrest in human MOLM-13 cells assessed as accumulation at sub-G1 phase at 0.3 uM measured after 72 hrs by propidium iodide/RNaseA staining based flow cytometry analysis (reference value: 13.76 %); format: functional
MOLM-13 [25] = experiment: Cell cycle arrest in human MOLM-13 cells assessed as accumulation at G2/M phase at 3 uM measured after 72 hrs by propidium iodide/RNaseA staining based flow cytometry analysis (reference value: 20.36 %); format: functional
MV4-11 [26] = experiment: Cell cycle arrest in human MV4-11 cells assessed as accumulation at S phase at 0.3 uM measured after 72 hrs by propidium iodide/RNaseA staining based flow cytometry analysis (reference value: 17.51 %); format: functional
MOLM-13 [27] = experiment: Cell cycle arrest in human MOLM-13 cells assessed as accumulation at sub-G1 phase at 10 uM measured after 72 hrs by propidium iodide/RNaseA staining based flow cytometry analysis (reference value: 13.76 %); format: functional
MV4-11 [28] = experiment: Cell cycle arrest in human MV4-11 cells assessed as accumulation at G2/M phase at 10 uM measured after 72 hrs by propidium iodide/RNaseA staining based flow cytometry analysis (reference value: 26.26 %); format: functional
MOLM-13 [29] = experiment: Cell cycle arrest in human MOLM-13 cells assessed as accumulation at G0/G1 phase at 0.3 uM measured after 72 hrs by propidium iodide/RNaseA staining based flow cytometry analysis (reference value: 53.92 %); format: functional
MV4-11 [30] = experiment: Cell cycle arrest in human MV4-11 cells assessed as accumulation at sub-G1 phase at 0.3 uM measured after 72 hrs by propidium iodide/RNaseA staining based flow cytometry analysis (reference value: 7.43 %); format: functional
MV4-11 [31] = experiment: Cell cycle arrest in human MV4-11 cells assessed as accumulation at sub-G1 phase at 30 uM measured after 72 hrs by propidium iodide/RNaseA staining based flow cytometry analysis (reference value: 7.43 %); format: functional
MOLM-13 [32] = experiment: Cell cycle arrest in human MOLM-13 cells assessed as accumulation at G2/M phase at 10 uM measured after 72 hrs by propidium iodide/RNaseA staining based flow cytometry analysis (reference value: 20.36 %); format: functional
MV4-11 [33] = experiment: Cell cycle arrest in human MV4-11 cells assessed as accumulation at S phase at 10 uM measured after 72 hrs by propidium iodide/RNaseA staining based flow cytometry analysis (reference value: 17.51 %); format: functional
MOLM-13 [34] = experiment: Cell cycle arrest in human MOLM-13 cells assessed as accumulation at G2/M phase at 30 uM measured after 72 hrs by propidium iodide/RNaseA staining based flow cytometry analysis (reference value: 20.36 %); format: functional
MV4-11 [35] = experiment: Cell cycle arrest in human MV4-11 cells assessed as accumulation at G0/G1 phase at 30 uM measured after 72 hrs by propidium iodide/RNaseA staining based flow cytometry analysis (reference value: 50.06 %); format: functional
MV4-11 [36] = experiment: Cell cycle arrest in human MV4-11 cells assessed as accumulation at sub-G1 phase at 10 uM measured after 72 hrs by propidium iodide/RNaseA staining based flow cytometry analysis (reference value: 7.43 %); format: functional
MOLM-13 [37] = experiment: Cell cycle arrest in human MOLM-13 cells assessed as accumulation at S phase at 10 uM measured after 72 hrs by propidium iodide/RNaseA staining based flow cytometry analysis (reference value: 11.14 %); format: functional
MOLM-13 [38] = experiment: Cell cycle arrest in human MOLM-13 cells assessed as accumulation at S phase at 0.3 uM measured after 72 hrs by propidium iodide/RNaseA staining based flow cytometry analysis (reference value: 11.14 %); format: functional
MOLM-13 [39] = experiment: Cell cycle arrest in human MOLM-13 cells assessed as accumulation at G2/M phase at 0.3 uM measured after 72 hrs by propidium iodide/RNaseA staining based flow cytometry analysis (reference value: 20.36 %); format: functional
MV4-11 [40] = experiment: Cell cycle arrest in human MV4-11 cells assessed as accumulation at G2/M phase at 0.3 uM measured after 72 hrs by propidium iodide/RNaseA staining based flow cytometry analysis (reference value: 26.26 %); format: functional

## COc1c(O)cc2oc(-c3ccc(O)cc3)cc(=O)c2c1O [HISPIDULIN]
MV4-11 [1]
  IC50: 6800 nM
MOLM-13 [2]
  IC50: 7000 nM
[3]
  IC50: 390 nM
MV4-11 [4]
  Activity: Active
[5]
  inhibition: > 80%
[6]
  IC50: 230 nM
[7]
  IC50: 440 nM
MOLM-13 [8]
  Activity: Active

## COc1ccc(-c2cc(=O)c3c(O)c(OC)c(O)cc3o2)cc1 [PECTOLINARIGENIN]
MV4-11 [1]
  IC50: 7900 nM
MOLM-13 [2]
  IC50: 5900 nM
[3]
  IC50: 880 nM
[5]
  inhibition: > 80%
[6]
  IC50: 580 nM
[7]
  IC50: 650 nM

## COc1ccc(-c2cc(=O)c3c(O)c(OC)c(OC)cc3o2)cc1 [SALVIGENIN]
MOLM-13 [9]
  Activity: 5.26%
MV4-11 [10]
  Activity: 5.91%
MOLM-13 [11]
  Activity: 19.21%
MV4-11 [12]
  Activity: 8.74%
MV4-11 [1]
  IC50: 2600 nM
MOLM-13 [13]
  Activity: 4.05%
MV4-11 [14]
  Activity: 69.17%
MOLM-13 [15]
  Activity: 42.74%
MV4-11 [16]
  Activity: 70.55%
MOLM-13 [2]
  IC50: 2600 nM
MOLM-13 [17]
  Activity: 59.78%
MOLM-13 [18]
  Activity: 43.19%
MV4-11 [19]
  Activity: 11.25%
MOLM-13 [20]
  Activity: 40.99%
MV4-11 [21]
  Activity: 6.83%
[3]
  IC50: 580 nM
MV4-11 [4]
  Activity: Active
[5]
  inhibition: > 80%
MV4-11 [22]
  Activity: 14.37%
MV4-11 [23]
  Activity: 50.11%
MOLM-13 [24]
  Activity: 9.93%
MOLM-13 [25]
  Activity: 15.19%
MV4-11 [26]
  Activity: 20.59%
MOLM-13 [27]
  Activity: 40.89%
MV4-11 [28]
  Activity: 10.19%
[6]
  IC50: 290 nM
MOLM-13 [29]
  Activity: 59.22%
MV4-11 [30]
  Activity: 6.78%
MV4-11 [31]
  Activity: 9.4%
MOLM-13 [32]
  Activity: 11.15%
MV4-11 [33]
  Activity: 6.62%
MOLM-13 [34]
  Activity: 11.69%
MV4-11 [35]
  Activity: 73.88%
MV4-11 [36]
  Activity: 14.62%
MOLM-13 [37]
  Activity: 5.4%
MOLM-13 [38]
  Activity: 10.48%
MOLM-13 [39]
  Activity: 20.25%
[7]
  IC50: 550 nM
MOLM-13 [8]
  Activity: Active
MV4-11 [40]
  Activity: 25.07%
